Drawing on US20250340561A1, “QUINAZOLINE COMPOUND FOR INDUCING DEGRADATION OF G12D MUTANT KRAS PROTEIN” (Astellas Pharma Inc., priority 2021, published 2025), this text covers IC50 for eight molecules.

For assay [1], the system named is phosphorylation of ERK (Thr202/Tyr204). The assay can be described thus: Test Example 2: ERK phosphorylation inhibition action in AsPC-1, Cell ELISA. The format is cell-based, human. Particulars: Homo sapiens, ASPC1, 24 h, AsPC-1 cells, 0% = 1 μM trametinib, read-out: IC50. The gist of the method: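 AsPC-1 cells (KRAS G12D) treated 24 h with compound (6 points, 10 μM to 3.0 nM final) in RPMI 1640/10% FBS. Fixed with glyoxal; pERK Thr202/Tyr204 detected by In-Cell ELISA with 800 nm fluorescence. IC50 by Sigmoid-Emax regression, with DMSO set to 100% and 1 μM trametinib to 0%.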
(In general: An ELISA detects its analyte on a solid surface through an enzyme-linked reagent.)

Assay [2] concerns human G12D mutant KRAS-positive pancreatic cancer line AsPC-1. The assay can be described thus: Test Example 3: non-anchorage-dependent cell growth inhibition, spheroid 3D cell culture. In kind it is cell-based. Particulars: Homo sapiens, ASPC1, 144 h, AsPC-1 spheroid 3D culture, 6 days, CellTiter Glo 2.0; read-out: IC50. The method, boiled down:
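AsPC-1 cells were grown as spheroids (5×10^2 cells/well, low-adhesion round-bottom plates). Next day they were treated with compound at 6 final concentrations from 10 μM to 3.0 nM for 6 days at 37 °C, and viability was read by CellTiter Glo luminescence. IC50 came from Sigmoid-Emax nonlinear regression, normalized between DMSO-treated and cell-free wells.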

For `Cc1ncsc1-c1ccc([C@H](CO)NC(=O)[C@@H]2C[C@@H](O)CN2C(=O)[C@H](C(C)C)n2cc(-c3ccc(COc4c(-c5c(C)c(F)cc6[nH]ncc56)c(C5CC5)cc5c(N6C[C@@H]7C[C@H]6CN7)nc(NCCO)nc45)cc3)nn2)cc1` [Example 66], the concentration for half-maximal inhibition (IC50) in assay [1] turned out to be 114 nM; in assay [2], 360 nM.

`Cc1c(F)cc2[nH]ncc2c1-c1c(C2CC2)cc2c(N3C[C@@H]4C[C@H]3CN4)nc(OC3CCOCC3)nc2c1OCc1ccc(-c2cn([C@H](C(=O)N3C[C@H](O)C[C@H]3C(=O)N[C@@H](CO)c3cccc(S(C)(=O)=O)c3)C(C)C)nn2)cc1` [Example 67]: the IC50 in assay [1] came to 758 nM; in assay [2], 975 nM.

With `Cc1ncsc1-c1ccc([C@@H](CO)NC(=O)[C@@H]2C[C@@H](O)CN2C(=O)[C@H](C(C)C)n2cc(-c3ccc(COc4c(-c5c(C)c(F)cc6[nH]ncc56)c(C5CC5)cc5c(N6C[C@@H]7C[C@H]6CN7)nc(OC6CCOCC6)nc45)cc3)nn2)cc1` [Example 68], the results for the half-maximal inhibitory concentration (IC50) in assay [1] and in assay [2] were 2210 nM and 1630 nM, respectively.

Consider `Cc1c(F)cc2[nH]ncc2c1-c1c(C2CC2)cc2c(N3C[C@@H]4C[C@H]3CN4)nc(OC3CCOCC3)nc2c1OCc1ccc(-c2cn([C@H](C(=O)N3C[C@H](O)C[C@H]3C(=O)N[C@@H](CO)c3ccc(-n4ccnc4C)cc3)C(C)C)nn2)cc1` [Example 69], for which the IC50 in assay [1] turned out to be 17 nM; in assay [2], 64 nM.

Take `CCn1nccc1-c1ccc([C@H](CO)NC(=O)[C@@H]2C[C@@H](O)CN2C(=O)[C@H](C(C)C)n2cc(-c3ccc(COc4c(-c5c(C)c(F)cc6[nH]ncc56)c(C5CC5)cc5c(N6C[C@@H]7C[C@H]6CN7)nc(OC[C@H](C)OC)nc45)cc3)nn2)cc1` [Example 70]: the results for the IC50 in assay [1] and in assay [2] were 12 nM and 21 nM, respectively.

`CO[C@@H](C)COc1nc(N2C[C@@H]3C[C@H]2CN3)c2cc(C3CC3)c(-c3c(C)c(F)cc4[nH]ncc34)c(OCc3ccc(-c4cn([C@H](C(=O)N5C[C@H](O)C[C@H]5C(=O)N[C@@H](CO)c5ccc(-n6ccnc6C)cc5)C(C)C)nn4)cc3)c2n1` [Example 71]: the 50% inhibitory concentration (IC50) in assay [1] came to 38 nM; in assay [2], 51 nM.

`CO[C@@H](C)COc1nc(N2C[C@@H]3C[C@H]2CN3)c2cc(C3CC3)c(-c3c(C)c(F)cc4[nH]ncc34)c(OCc3ccc(-c4cn([C@H](C(=O)N5C[C@H](O)C[C@H]5C(=O)N[C@@H](CO)c5ccc(-c6ocnc6C)cc5)C(C)C)nn4)cc3)c2n1` [Example 72]: the IC50 in assay [1] is 16 nM; in assay [2], 26 nM.

For the molecule `Cc1ncsc1-c1ccc([C@H](CO)NC(=O)[C@@H]2C[C@@H](O)CN2C(=O)[C@H](C2CC2)n2cc(-c3ccc(COc4c(-c5c(C)c(F)cc6[nH]ncc56)c(C5CC5)cc5c(N6C[C@@H]7C[C@H]6CN7)nc(OC6CCOCC6)nc45)cc3)nn2)cc1` [Example 73], the 50% inhibitory concentration (IC50) in assay [1] stood at 133 nM; in assay [2], 112 nM.

The IC50 is the concentration that gives 50% inhibition.
